Assay [1] has as its system IL6 secretion by TMD8 ABC-DLBCL cells. The experiment in a line: Human IL6 Mesoscale assay (TMD-8). The format is cell-based. Particulars: Homo sapiens, TMD8; TMD-8 cells, 24 h. The protocol: (§1) NFKB signaling regulates the secretion of multiple cytokines, including IL6 and IL10. Secretion of the cytokines IL6 and IL10 by TMD8 or OCI-LY3 ABC-DLBCL cells was measured using a mesoscale assay. Inhibition of NFKB signaling by MALT1 or BTK inhibitors results in a decrease of IL6/10 secretion.
(§2) TMD8 or OCI-LY3 cells were propagated in RPMI-1640 (Sigma Aldrich) supplemented with 10% fetal bovine serum (HyClone), 1 mM sodium pyruvate (Invitrogen), 2 mM L-glutamine (Sigma Aldrich) and 1% PenStrep (Sigma Aldrich). Cell passage number should not exceed 30. Cells should be kept between 0.5-2.5 million cells per mL during culturing and cells should be supplemented every 2-3 days with fresh 50 μM beta-mercaptoenthanol. No beta-mercaptoethanol was used during the mesoscale assay.
(§3) For the Mesoscale assay, 100,000 TMD8 or OCI-LY3 cells were seeded per well into black-colored 96-well plates with clear bottom (Corning #3904) and test compounds were added in 9 dilution steps (1:2) ranging from 15 μM to 58.6 nM (final DMSO concentration 0.3%). DMSO control wells were used to determine the maximum signal (High Control (HC)). Treatment with the BTK inhibitor RN486 in a dose range from 30 nM to 131 pM (9 dilutions of 1:2) served as a positive control for NFKB pathway inhibition and was used to determine the maximum inhibition (Low Control (LC)). Compounds and cells were incubated for 24 h at 37° C. and 5% CO2 (assay volume is 150 μL). After 24 h of incubation 50 μL of the supernatant was transferred to a MSD plate (V-Plex Proinflammation Panel 1 (human) kit, Mesoscale (MSD)) and incubated for 2 h with vigorous shaking (600 rpm) at room temperature. Following incubation, plates were washed 3× with PBS+0.05% Tween-20 and 25 μL detection antibody solution (IL6 & IL10 antibodies in diluent 3 (MSD)) was added per well followed by 2 h of incubation with vigorous shaking (600 rpm) at room temperature. After 3× washes with PBS+0.05% Tween-20, plates were incubated with 150 μL 2× Read Buffer T and read on SECTOR imager.

Assay [2] has as its target full-length MALT1 protein (Strep-MALT1(1-824)-His) (Homo sapiens (Human), UniProt Q9UDY8). The experiment in a line: MALT1 Biochemical Protease Assay (Ac-LRSR-AMC substrate). As to conditions: 10 nM FL MALT1, 200 μM Ac-LRSR-AMC, 4 h at RT; read-out: MALT1_Biochemical activity (Ac-LRSR-amc) IC50. The protocol: The tetrapeptide LRSR is coupled to AMC (7-amino-4-methylcoumarin) and provides a quenched, fluorescent substrate for the MALT1 protease (SM Biochemicals). […] Test compound concentrations ranged from 30 μM to 0.5 nM using 11 dilution steps (1:3). Background signal was measured from control wells containing assay buffer without enzyme which functions as low control (LC). High control (HC) values were generated using the reaction with enzyme but no compound treatment. Compounds were pre-incubated with MALT1 enzyme for 50 minutes at RT. […] The reaction was subsequently incubated for 4 h at RT and fluorescence was measured.
LC=Median of the low control values
An estimate of the slope of the plot in terms of the Hill coefficient was also obtained. IC50 Calculation:
[formula] With • UB=upper bound • LB=lower bound Used in “Lexis Dose Response Curve Fitting” Version 1.0.

Assay [3] deals with IL10 secretion by TMD8 ABC-DLBCL cells. As to the kind of experiment: Human IL10 Mesoscale assay (TMD-8). The format is cell-based. As to conditions: Homo sapiens, TMD8; TMD-8 cells, 24 h. The protocol: as §1, §2, §3

Sequence of full-length MALT1 protein (Strep-MALT1(1-824)-His) (Q9UDY8 whole entry): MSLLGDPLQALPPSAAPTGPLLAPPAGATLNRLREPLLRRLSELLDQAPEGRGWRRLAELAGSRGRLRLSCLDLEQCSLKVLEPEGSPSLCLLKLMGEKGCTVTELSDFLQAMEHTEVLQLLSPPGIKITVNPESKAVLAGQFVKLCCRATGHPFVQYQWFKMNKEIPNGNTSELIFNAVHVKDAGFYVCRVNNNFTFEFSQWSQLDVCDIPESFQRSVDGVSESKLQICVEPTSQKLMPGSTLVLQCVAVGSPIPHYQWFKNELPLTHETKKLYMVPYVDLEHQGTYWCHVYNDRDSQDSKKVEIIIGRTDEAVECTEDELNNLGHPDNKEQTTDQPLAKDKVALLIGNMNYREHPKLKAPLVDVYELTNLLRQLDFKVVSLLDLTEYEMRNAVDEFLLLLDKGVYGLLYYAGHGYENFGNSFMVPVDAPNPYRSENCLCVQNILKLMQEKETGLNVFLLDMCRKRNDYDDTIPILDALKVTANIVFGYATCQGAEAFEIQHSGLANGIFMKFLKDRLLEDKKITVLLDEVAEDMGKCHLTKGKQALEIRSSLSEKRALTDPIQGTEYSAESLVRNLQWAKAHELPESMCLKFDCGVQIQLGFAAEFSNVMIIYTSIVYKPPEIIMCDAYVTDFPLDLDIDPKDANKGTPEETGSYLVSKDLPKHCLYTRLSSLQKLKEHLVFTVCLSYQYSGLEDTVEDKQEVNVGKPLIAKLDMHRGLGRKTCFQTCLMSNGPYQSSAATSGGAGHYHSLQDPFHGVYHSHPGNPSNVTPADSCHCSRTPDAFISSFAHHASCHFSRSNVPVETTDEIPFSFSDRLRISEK

The IC50 is the midpoint of a concentration-inhibition curve. In the case of `O=C(Nc1cnc(-n2nccn2)c(Cl)c1)c1c(F)nn(-c2cccc3ncccc23)c1C(F)(F)F` [Cpd 160, N-(5-chloro-6-(2H-1,2,3-triazol-2-yl)pyridin-3-yl)-3-fluoro-1-(quinolin-5-yl)-5-(trifluoromethyl)-1H-pyrazole-4-carboxamide], the results for the IC50 in assay [1], in assay [2] and in assay [3] were 95 nM, 389 nM and 93 nM, respectively.

Consider `Cc1cc(NC(=O)c2cnn(-c3cccc4c(=O)[nH]ccc34)c2C(F)(F)F)c(C)nc1-n1nccn1` [Cpd 161, N-(2,5-dimethyl-6-(2H-1,2,3-triazol-2-yl)pyridin-3-yl)-1-(1-oxo-1,2-dihydroisoquinolin-5-yl)-5-(trifluoromethyl)-1H-pyrazole-4-carboxamide], for which the IC50 in assay [1] was above 15100 nM; in assay [2], 282 nM; in assay [3], above 15100 nM.

For `Cc1nc(-n2cccn2)c(Cl)cc1NC(=O)c1cnn(-c2cccc3c(=O)[nH]ccc23)c1C(F)(F)F` [Cpd 170, N-(5-chloro-2-methyl-6-(1H-pyrazol-1-yl)pyridin-3-yl)-1-(1-oxo-1,2-dihydroisoquinolin-5-yl)-5-(trifluoromethyl)-1H-pyrazole-4-carboxamide], the values for the IC50 in assay [1], in assay [2] and in assay [3] were 339 nM, 135 nM and 112 nM, respectively.

`Cc1cc(-n2nccn2)c(Cl)cc1NC(=O)c1cnn(-c2cccc3c(=O)[nH]ccc23)c1C(F)(F)F` [Cpd 171, N-(5-chloro-2-methyl-4-(2H-1,2,3-triazol-2-yl)phenyl)-1-(1-oxo-1,2-dihydroisoquinolin-5-yl)-5-(trifluoromethyl)-1H-pyrazole-4-carboxamide]: the IC50 in assay [1] is 91 nM; in assay [2], 71 nM; in assay [3], 60 nM.

With `Cc1nc(-n2nccn2)c(Br)cc1NC(=O)c1cnn(-c2cccc3c(=O)[nH]ccc23)c1C(F)(F)F` [Cpd 185, N-(5-bromo-2-methyl-6-(2H-1,2,3-triazol-2-yl)pyridin-3-yl)-1-(1-oxo-1,2-dihydroisoquinolin-5-yl)-5-(trifluoromethyl)-1H-pyrazole-4-carboxamide], the IC50 in assay [1] is 186 nM; in assay [2] it was 18 nM; in assay [3], 162 nM.

As for `O=C(Nc1cnc(-n2nccn2)c(Cl)c1)c1cnn(-c2cccc3ncccc23)c1Br` [Cpd 188, 5-Bromo-N-(5-chloro-6-(2H-1,2,3-triazol-2-yl)pyridin-3-yl)-1-(quinolin-5-yl)-1H-pyrazole-4-carboxamide], the concentration for half-maximal inhibition (IC50) in assay [1] worked out at 46 nM; in assay [2] it was 115 nM; in assay [3] it was 50 nM.

Take `Cc1nc(-n2nccn2)c(Cl)cc1NC(=O)c1cnn(-c2ccc(F)c3nccn23)c1C(F)(F)F` [Cpd 203, N-(5-chloro-2-methyl-6-(2H-1,2,3-triazol-2-yl)pyridin-3-yl)-1-(8-fluoroimidazo[1,2-a]pyridin-5-yl)-5-(trifluoromethyl)-1H-pyrazole-4-carboxamide]: the results for the IC50 in assay [1], in assay [2] and in assay [3] were 5620 nM, 162 nM and 2690 nM, respectively.

Take `O=C(Nc1cnc(-n2nccn2)c(Cl)c1)c1cnn(-c2c(F)ccc3nccn23)c1C(F)(F)F` [Cpd 205, N-(5-chloro-6-(2H-1,2,3-triazol-2-yl)pyridin-3-yl)-1-(6-fluoroimidazo[1,2-a]pyridin-5-yl)-5-(trifluoromethyl)-1H-pyrazole-4-carboxamide]: the IC50 is above 15100 nM in assay [1], 195 nM in assay [2] and 1900 nM in assay [3].

With `Cc1cn2c(-n3ncc(C(=O)Nc4ccnc(C(F)(F)F)c4)c3C(F)(F)F)cccc2n1` [Cpd 206, 1-(2-methylimidazo[1,2-a]pyridin-5-yl)-5-(trifluoromethyl)-N-(2-(trifluoromethyl)pyridin-4-yl)-1H-pyrazole-4-carboxamide], the values for the IC50 in assay [1], in assay [2] and in assay [3] were 6170 nM, 1740 nM and 3890 nM, respectively.

Consider `O=C(Nc1ccnc(C(F)(F)F)c1)c1cnn(-c2cccc3nccn23)c1C(F)(F)F` [Cpd 208, 1-(imidazo[1,2-a]pyridin-5-yl)-5-(trifluoromethyl)-N-(2-(trifluoromethyl)pyridin-4-yl)-1H-pyrazole-4-carboxamide], for which the results for the concentration for half-maximal inhibition (IC50) in assay [1], in assay [2] and in assay [3] were above 15100 nM, 316 nM and 8710 nM, respectively.

In the case of `O=C(Nc1ccnc(C(F)(F)F)c1)c1cnn(-c2ccc(F)c3nccn23)c1C(F)(F)F` [Cpd 209, 1-(8-fluoroimidazo[1,2-a]pyridin-5-yl)-5-(trifluoromethyl)-N-(2-(trifluoromethyl)pyridin-4-yl)-1H-pyrazole-4-carboxamide], the figures for the half-maximal inhibitory concentration (IC50) in assay [1], in assay [2] and in assay [3] were 1480 nM, 224 nM and 1120 nM, respectively.

With `Cc1cnc2cccc(-n3ncc(C(=O)Nc4cnc(-n5nccn5)c(Cl)c4)c3C(F)(F)F)n12` [Cpd 211, N-(5-chloro-6-(2H-1,2,3-triazol-2-yl)pyridin-3-yl)-1-(3-methylimidazo[1,2-a]pyridin-5-yl)-5-(trifluoromethyl)-1H-pyrazole-4-carboxamide], the figures for the IC50 in assay [1], in assay [2] and in assay [3] were 1660 nM, 35 nM and 2290 nM, respectively.

In the case of `CN1CCc2ccc(NC(=O)c3cnn(-c4cccc5ncccc45)c3C(F)(F)F)cc2C1=O` [Cpd 212, N-(2-methyl-1-oxo-1,2,3,4-tetrahydroisoquinolin-7-yl)-1-(quinolin-5-yl)-5-(trifluoromethyl)-1H-pyrazole-4-carboxamide], the IC50 in assay [1] was found to be 1020 nM; in assay [2], 11000 nM; in assay [3], 513 nM.

With `CS(=O)(=O)c1cc(NC(=O)c2cnn(-c3cccc4ncccc34)c2C(F)(F)F)ccc1-n1ccnn1` [Cpd 213, N-(3-(methylsulfonyl)-4-(1H-1,2,3-triazol-1-yl)phenyl)-1-(quinolin-5-yl)-5-(trifluoromethyl)-1H-pyrazole-4-carboxamide], the figures for the concentration for half-maximal inhibition (IC50) in assay [1], in assay [2] and in assay [3] were above 15100 nM, 10000 nM and above 15100 nM, respectively.

Consider `CN1C(=O)COc2ccc(NC(=O)c3cnn(-c4cccc5ncccc45)c3C(F)(F)F)cc21` [Cpd 214, N-(4-methyl-3-oxo-3,4-dihydro-2H-benzo[b][1,4]oxazin-6-yl)-1-(quinolin-5-yl)-5-(trifluoromethyl)-1H-pyrazole-4-carboxamide], for which the values for the IC50 in assay [1], in assay [2] and in assay [3] were 2040 nM, 6030 nM and 2240 nM, respectively.

For the molecule `CS(=O)(=O)c1cc(NC(=O)c2cnn(-c3cccc4ncccc34)c2C(F)(F)F)ccc1-n1nccn1` [Cpd 215, N-(3-(methylsulfonyl)-4-(2H-1,2,3-triazol-2-yl)phenyl)-1-(quinolin-5-yl)-5-(trifluoromethyl)-1H-pyrazole-4-carboxamide], the IC50 in assay [1] amounted to 12300 nM; in assay [2] it was 5750 nM; in assay [3], 2090 nM.

In the case of `Cn1ccc2ccc(NC(=O)c3cnn(-c4cccc5ncccc45)c3C(F)(F)F)cc2c1=O` [Cpd 216, N-(2-methyl-1-oxo-1,2-dihydroisoquinolin-7-yl)-1-(quinolin-5-yl)-5-(trifluoromethyl)-1H-pyrazole-4-carboxamide], the IC50 in assay [1] amounted to 912 nM; in assay [2], 5370 nM; in assay [3], 339 nM.

`O=C1COc2ccc(NC(=O)c3cnn(-c4cccc5ncccc45)c3C(F)(F)F)cc2N1` [Cpd 217, N-(3-oxo-3,4-dihydro-2H-benzo[b][1,4]oxazin-6-yl)-1-(quinolin-5-yl)-5-(trifluoromethyl)-1H-pyrazole-4-carboxamide]: the IC50 in assay [1] is 537 nM; in assay [2] it was 4900 nM; in assay [3] it was 269 nM.

As for `Cc1cc(NC(=O)c2cnn(-c3cccc4ncccc34)c2C(F)(F)F)cnc1-n1ccn(C)c1=O` [Cpd 218, N-(5-methyl-6-(3-methyl-2-oxo-2,3-dihydro-1H-imidazol-1-yl)pyridin-3-yl)-1-(quinolin-5-yl)-5-(trifluoromethyl)-1H-pyrazole-4-carboxamide], the IC50 in assay [1] turned out to be 174 nM; in assay [2], 3470 nM; in assay [3] it was 87 nM.

These data come from US10954214B2 (Janssen Pharmaceutica NV, priority 2016, dated 2021).
